Values quoted from earlier work, collected in patent US20200022905A1 (priority 2009, published 2020).
Like-named read-outs stand apart in the source and are kept apart here.

Legend:
[1] = especially by non-smokers
[2] = not given; remark: listed apart in the source

CN1CCCC1c1cccnc1 (stereo not shown) [Nicotine]
dose after which serious toxic reactions may be experienced [1]: 4 to 8 mg
time to get to the brain after smoke inhalation: ten to twenty
ratio of non-ionized form ([2]; pH 7.4): 30%
ratio of non-ionized form ([2]; pH 8.5): 80%
